{"source": "patent EP0072352B1", "about": "“Benzazepin-2-ones, process for their preparation, pharmaceutical preparations containing these compounds and the compounds for therapeutical use” (CIBA-GEIGY AG, priority 1981, dated 1983)", "key": {"[1]": {"system": "durch Angiotensin I (AI) hervorgerufene Blutdrucksteigerung", "test": "Inhibition of the angiotensin I (AI) induced blood pressure rise after intravenous administration of the test compound", "type": "in vivo, Ratten", "details": "for % AI Hemmung: rat, mean inhibition within 30 min after administration", "text": "Die Verbindungen der Erfindung zeigen nach intravenöser oder oraler Verabreichung eine hemmende Wirkung gegen die durch Angiotensin I hervorgerufene Blutdrucksteigerung auch an normotensiven Ratten. Das Angiotensin 1 wird durch das genannte Umwandlungsenzym zu der stark blutdrucksteigernden Substanz Angiotensin II hydrolysiert. Die Hemmung des genannten Enzyms blockiert die Bildung von Angiotensin II aus Angiotensin I. In dieser Weise wird die durch Angiotensin I provozierte Blutdrucksteigerung abgeschwächt.\nDer entsprechende in-vivo-Test mit den intravenös verabreichten Verbindungen wird mit männlichen normotensiven Ratten, welche mit dem Natriumsalz der 5-Äthyl-5-(1-methylpropyl)-2-thiobarbitursäure narkotisiert sind, durchgeführt. Eine femorale Arterie und eine Wadenvene werden mit je einer Hohlnadel für die direkte Messung des Blutdrucks und für die intravenöse Verabreichung des Angiotensins I und einer erfindungsgemäßen Verbindung versehen. Nach der Stabilisierung des basalen Blutdrucks wird die Druckänderung nach drei, in 5-minütigen Intervallen, i. v. durchgeführten Reizungen mit 333 ng/kg Angiotensin I bestimmt. Solche Druckänderungen werden wieder nach 5,10,15, 30 und 60 Minuten nach intravenöser Verabreichung der zu prüfenden Verbindung bestimmt. Die letztgenannten Druckänderungen werden mit den Anfangswerten verglichen. Jede festgestellte Abnahme vom Ansprechen des Blutdrucks ist ein Hinweis auf die Hemmung des Enzyms, welches das Angiotensin I umwandelt. Als Illustration der Erfindung sei auf das « höher schmelzende » 1-Carboxymethyl-3-(1-äthoxycarbonyl-3-phenylpropylamino)-2,3,4,5-tetrahydro-1H-[1] benzazepin-2-on des Beispiels 1 und auf das entsprechende S,S-Enantiomere des Beispiels 12 hingewiesen. Diese hemmen vollständig die Blutdrucksteigerung nach Angiotensin I-Reizung während 30 Minuten nach intravenöser Verabreichung einer Dosis von 1 mg/kg pro Substanz.\nIn der in vivo Prüfungsmethode wird zuerst durch Verabreichung des Angiotensins I (AI) an das Versuchstier eine Blutdrucksteigerung hervorgerufen. Es wird dann die Hemmung der einzelnen Verbindungen auf diese Blutdrucksteigerung gemessen.\n11. Methode der Hemmung der durch Angiotensin I (AI) hervorgerufenen Blutdrucksteigerung, durch intravenöse Verabreichung der Testverbindung (% AI-Hemmung)\nIn diesen Untersuchungen wird wie oben beschrieben, je ein Katheter in eine femurale Arterie und in eine Wadenvene der Ratte eingeführt.\nDer arterielle Druck wurde von dem Arterienkatheter aus registriert, während man Angiotensin I (AI) und die einzelnen Testverbindungen durch den Venenkatheter injiziert hatte. Die Hemmung der durch Angiotensin I verursachten Blutdrucksteigerung ist als prozentuelle Abnahme des vor der Behandlung erhaltenen Kontrollwertes der Blutdrucksteigerung ausgedrückt und in der Tabelle als Durchschnittswert der Hemmung innerhalb 30 Minuten nach Verabreichung der Testsubstanz angegeben. (Siehe Tabelle Seite 41 f.)"}, "[2]": {"target": "T1, Angiotensin-umwandelnde Enzym (ACE) (Oryctolagus cuniculus, UniProt P12822)", "T1 construct": "Es wurde ein Kaninchen-Lungengewebe-Präparat; from tissue; host or cells: lung of adult male rabbits", "T1 sequence (P12822 34-1310)": "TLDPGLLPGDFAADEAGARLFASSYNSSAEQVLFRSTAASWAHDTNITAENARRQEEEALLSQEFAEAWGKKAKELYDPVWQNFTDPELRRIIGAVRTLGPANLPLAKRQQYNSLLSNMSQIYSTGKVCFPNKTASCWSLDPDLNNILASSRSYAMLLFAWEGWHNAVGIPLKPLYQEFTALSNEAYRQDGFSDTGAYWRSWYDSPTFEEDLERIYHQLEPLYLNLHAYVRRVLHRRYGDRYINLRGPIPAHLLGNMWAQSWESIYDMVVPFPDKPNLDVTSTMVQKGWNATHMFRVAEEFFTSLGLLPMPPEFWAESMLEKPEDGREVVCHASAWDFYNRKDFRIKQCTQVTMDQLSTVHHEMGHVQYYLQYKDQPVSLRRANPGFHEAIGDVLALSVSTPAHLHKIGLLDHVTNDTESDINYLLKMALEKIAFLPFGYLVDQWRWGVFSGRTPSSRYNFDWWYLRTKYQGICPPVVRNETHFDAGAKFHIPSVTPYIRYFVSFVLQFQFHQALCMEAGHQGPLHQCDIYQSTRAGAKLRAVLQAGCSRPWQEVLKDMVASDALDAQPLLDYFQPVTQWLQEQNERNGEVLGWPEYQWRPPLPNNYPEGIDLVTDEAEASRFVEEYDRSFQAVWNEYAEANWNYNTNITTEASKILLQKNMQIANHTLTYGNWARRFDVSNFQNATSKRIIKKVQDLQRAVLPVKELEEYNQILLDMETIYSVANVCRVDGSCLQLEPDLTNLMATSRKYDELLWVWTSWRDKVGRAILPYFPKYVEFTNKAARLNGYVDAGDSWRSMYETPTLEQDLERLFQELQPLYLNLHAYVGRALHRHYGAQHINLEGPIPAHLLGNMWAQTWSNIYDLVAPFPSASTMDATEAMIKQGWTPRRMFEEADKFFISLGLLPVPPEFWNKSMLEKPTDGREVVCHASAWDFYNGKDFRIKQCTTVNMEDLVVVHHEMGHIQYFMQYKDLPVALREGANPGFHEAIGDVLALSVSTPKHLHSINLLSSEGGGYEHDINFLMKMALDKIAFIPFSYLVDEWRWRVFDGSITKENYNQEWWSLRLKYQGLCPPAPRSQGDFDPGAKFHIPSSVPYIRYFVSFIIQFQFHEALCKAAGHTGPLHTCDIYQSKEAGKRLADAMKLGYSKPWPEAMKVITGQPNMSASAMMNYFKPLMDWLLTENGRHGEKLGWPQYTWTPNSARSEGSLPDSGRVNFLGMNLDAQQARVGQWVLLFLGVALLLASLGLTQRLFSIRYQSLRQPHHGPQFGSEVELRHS", "test": "In vitro ACE inhibition (ACEI), rabbit lung tissue preparation, hippuryl-histidyl-leucine substrate, method of Cheung and Cushman", "type": "biochemical, Kaninchen", "text": "Die in-vitro-Hemmung des Enzyms, welches das Angiotensin umwandelt, kann bei den Verbindungen dieser Erfindung analog zu Biochim. Biophys. Acta 293, 451 (1973) nachgewiesen werden. Gemäß dieser Methode werden die genannten Verbindungen in ungefähr 1 mMol-Konzentrationen in Phosphatpuffer aufgelöst. Zu 100 Mikroliter von Lösungen der Testverbindung in Phosphatpuffer, welche man auf die gewünschte Konzentration verdünnt, gibt man zuerst 100 Mikroliter von 5 millimolarem Hippuryl-histidylleucin in Phosphatpuffer und dann 50 µl des Angiotensin-umwandelnden Enzyms. Dieses Enzym wird aus Lungen von erwachsenen männlichen Kaninchen in Tris-Puffer, der Kalium- und Magnesiumchlorid und auch Rohrzucker enthält, hergestellt. Die genannten Lösungen werden 30 Minuten bei 37 °C inkubiert, und die weitere Reaktion wird durch Hinzufügen von 0,75 ml einer 0,6-normalen wäßrigen Natriumhydroxidlösung gestoppt. Dann gibt man bei Zimmertemperatur 100 Mikroliter einer 0,2 %-igen Lösung von o-Phthalaldehyd in Methanol und nach 10 Minuten 100 Mikroliter 6n-Chlorwasserstoffsäure dazu. Diese Proben werden in einem Spektrophotometer bei 360 nm mit Wasser verglichen, und ihre optische Dichte wird bestimmt. Diese Werte werden durch einen Konversionsfaktor einer Standard-Kurve angepaßt, wobei man die während der genannten Inkubation von 30 Minuten gebildete Histidyl-leucin-Menge in Nanomolen erhält. Die Ergebnisse werden, um den IC50-Wert zu bestimmen, gegenüber den Wirkstoff-Konzentrationen graphisch als Kurve dargestellt. Der IC50-Wert bedeutet diejenige WirkstoffKonzentration, welche die Hälfte der Aktivität einer Kontrollprobe, die keinen Wirkstoff enthält, ergibt. Als Illustration der Erfindung sei auf das « höher schmelzende 1-Carboxymethyl-3-(1-carboxy-3-phenylpro- pylamino)-2,3,4,5-tetrahydro-1H-[1]-benzazepin-2-on des Beispiels 9 und auf das entsprechende S,S-Enantiomere des Beispiels 19 hingewiesen, welche einen lC50-Wert von 5,2 × 10^-9 M bzw. 1,7 × 10^-9 M aufweisen. Das entsprechende « niedriger schmelzende » 1-Carboxymethyl-3-(1-carboxy-3-phenylpropy- iamino)-2,3,4,5-tetrahydro-1H-[1] benzazepin-2-on des Beispiels 8 zeigt einen lC50-Wert von 5,8 ×10^-8 M.\nDie Prüfung der Wirkung von Verbindungen ist gemäss den Methoden für die Auswertung der Hemmung des Enzyms, welches das Angiotensin umwandelt [angiotensin converting enzyme = ACE] durchgeführt worden. In der biochemischen Beurteilung der in vitro ACE-Hemmung [ACE inhibition = A-CEI] wird die Aktivität einer Verbindung im Kaninchen-Lungengewebe bestimmt.\nEs wurde ein Kaninchen-Lungengewebe-Präparat [Das and Saffer, J. Biol. Chem. 250 : 6762 (1975) für die Bestimmung von ACE nach der Methode von Cheung und Cushman [Cheung and Cushman, Biochim. Biophys. Acta 293, 451 (1973)] verwendet. In dieser Methode wird die Menge des Histidyl-leucins. welche aus einem synthetischen Substrat innerhalb einer Inkubation von 30 Minuten bei 37° freigesetzt wird, spektrophotometrisch bestimmt. Die lC50-Werte der ACE-Hemmung werden dann graphisch berechnet. Der lC50-Wert ist die Konzentration (in Mol) der getesteten Verbindung, welche die in Abwesenheit der Testsubstanz entstehende Menge des Histidyl-leucins um 50 % herabsetzt."}, "[3]": {"system": "spontan hypertensiven Ratten", "test": "Antihypertensive effect in spontaneously hypertensive rats, indirect measurement of systolic blood pressure (tail cuff), oral dosing", "type": "in vivo", "details": "peroral dose of 1 mg/kg", "text": "Die in vivo blutdrucksenkende Wirkung wird entweder direkt mit einem Katheter, der in die femorale Arterie des Versuchstieres eingeführt ist, oder indirekt durch Sphygmomanometrie am Rattenschwanz, und einem Übertragungsinstrument registriert. Der Blutdruck wird vor und nach der Verabreichung des Wirkstoffes in mm Hg bestimmt.\nSo sind die antihypertensiven Wirkungen in spontan hypertensiven Ratten durch indirekte Messung des systolischen Blutdrucks nachweisbar. Nicht narkotisierte Ratten werden einzeln in Käfigen, welche ihre Bewegung einschränken, in eine leicht geheizte Kammer gebracht. Ein Puls-Sensor wird innerhalb einer aufblasbaren Manschette am Schwanz jeder Ratte angebracht. Die Manschette wird aufgeblasen, um die Schwanz-Arterie zu schließen. Der Druck in der Manschette wird kontinuierlich reduziert, und der systolische Druck entspricht demjenigen Druck in der Manschette, bei welchem die Pulswellen wieder auftreten. Nach der Registrierung von Kontrollwerten des Blutdrucks und der Herzfrequenz werden die Testverbindungen peroral einmal täglich an vier aufeinanderfolgenden Tagen verabreicht. Zusätzliche Blutdruckmessungen werden üblicherweise nach 2,0, 4,0 und 23,5 Stunden nach jeder täglichen Dosis vorgenommen. Die Werte werden mit denjenigen von Ratten, welche lediglich mit der Trägersubstanz behandelt worden sind, verglichen. […]"}, "[4]": {"details": "rabbit lung tissue preparation, 30 min incubation at 37°, read-out: In vitro ACEI IC50"}, "[5]": {"details": "ACE from rabbit lung, 30 min at 37 °C, read-out: IC50-Wert"}}, "note": "Where a name gives a salt, the structure may show the parent alone. Read-outs that look alike come from different tables or passages of the source.", "data": [{"smiles": "CCOC(=O)[C@H](CCc1ccccc1)N[C@H]1CCc2ccccc2N(CC(=O)O)C1=O", "note": "[12 HCl Salz]", "values": [{"measurement": "% AI Hemmung", "setting": "[1]; i.v. Dosis 0.03 mg/kg", "result": 29, "unit": "%"}, {"measurement": "% AI Hemmung", "setting": "[1]; i.v. Dosis 0.06 mg/kg", "result": 74, "unit": "%"}, {"measurement": "% AI Hemmung", "setting": "[1]; i.v. Dosis 0.1 mg/kg", "result": 82, "unit": "%"}, {"measurement": "% AI Hemmung", "setting": "[1]; i.v. Dosis 0.3 mg/kg", "result": 95, "unit": "%"}, {"measurement": "% AI Hemmung", "setting": "[1]; i.v. Dosis 1.0 mg/kg", "result": 100, "unit": "%"}, {"measurement": "IC50", "setting": "[2]; [4]", "result": 400, "unit": "nM"}]}, {"smiles": "CCOC(=O)[C@@H](CCc1ccccc1)N[C@H]1CCc2ccccc2N(CC(=O)O)C1=O", "note": "[Beispiel 5, 1-Carboxymethyl-3-(1-äthoxycarbonyl-3-phenylpropylamino)-2,3,4,5,-tetrahydro-1H-[1] benzazepin-2-on]", "values": [{"measurement": "% AI Hemmung", "setting": "[1]; i.v. Dosis 0.1 mg/kg", "result": 37, "unit": "%"}, {"measurement": "IC50", "setting": "[2]; [4]", "result": 200, "unit": "nM"}]}, {"smiles": "CCOC(=O)[C@H](CCc1ccccc1)N[C@H]1CCc2ccccc2N(CC(=O)O)C1=O", "note": "[Beispiel 12, 1-Carboxymethyl-3S-(1S-äthoxycarbonyl-3-phenylpropylamino)-2,3,4,5-tetrahydro-1H-[1] benzazepin-2-on]", "values": [{"measurement": "Hemmung der Blutdrucksteigerung nach Angiotensin I-Reizung", "setting": "[1]; 1 mg/kg i.v., anaesthetised male normotensive rats, during 30 min after administration, 333 ng/kg angiotensin I", "result": "vollständig"}, {"measurement": "Blutdruck gesenkt (antihypertensiver Effekt)", "setting": "[3]", "result": 30, "unit": "mm Hg"}]}, {"smiles": "O=C(O)CN1C(=O)C(NC(CCc2ccccc2)C(=O)O)CCc2ccccc21", "note": "(single isomer, unassigned) [Beispiel 9, 1-Carboxymethyl-3-(1-carboxy-3-phenylpropylamino)-2,3,4,5-tetrahydro-1H-[1]-benzazepin-2-on]", "values": [{"measurement": "% AI Hemmung", "setting": "[1]; i.v. Dosis 0.03 mg/kg", "result": 40, "unit": "%"}, {"measurement": "% AI Hemmung", "setting": "[1]; i.v. Dosis 0.1 mg/kg", "result": 80, "unit": "%"}, {"measurement": "% AI Hemmung", "setting": "[1]; i.v. Dosis 0.3 mg/kg", "result": 93, "unit": "%"}, {"measurement": "IC50", "setting": "[2]; [5]", "result": 5.2, "unit": "nM"}, {"measurement": "IC50", "setting": "[2]; [4]", "result": 5, "unit": "nM"}]}, {"smiles": "O=C(O)CN1C(=O)C(NC(CCc2ccccc2)C(=O)O)CCc2ccccc21", "note": "(single isomer, unassigned) [Beispiel 8, 1-Carboxymethyl-3-(1-carboxy-3-phenylpropylamino)-2,3,4,5-tetrahydro-1H-[1] benzazepin-2-on]", "values": [{"measurement": "IC50", "setting": "[2]; [5]", "result": 58, "unit": "nM"}]}]}
